Assay: refractive index (Na D-line) (dimensionless); xn = mol fraction of the nth substance listed
Settings: Liquid, Standard Abbe refractometry

C1COCCO1 [1,4-dioxane] + c1ccccc1
refractive index
Settings	288.15 K	293.15 K	298.15 K	303.15 K	308.15 K	313.15 K	318.15 K
x1 = 0.0713	1.4982	1.4951	1.4921	1.489	1.4859	1.4829	1.4798
x1 = 0.1403	1.4924	1.4894	1.4864	1.4834	1.4803	1.4773	1.4743
x1 = 0.2123	1.4864	1.4835	1.4805	1.4775	1.4746	1.4716	1.4686
x1 = 0.2809	1.4807	1.4778	1.4749	1.472	1.4691	1.4662	1.4633
x1 = 0.3528	1.4748	1.472	1.4692	1.4663	1.4635	1.4607	1.4578
x1 = 0.4195	1.4694	1.4666	1.4639	1.4611	1.4583	1.4556	1.4528
x1 = 0.5037	1.4626	1.4599	1.4573	1.4546	1.4519	1.4492	1.4465
x1 = 0.58	1.4565	1.4539	1.4513	1.4487	1.4461	1.4435	1.4409
x1 = 0.6504	1.451	1.4484	1.4459	1.4434	1.4409	1.4383	1.4357
x1 = 0.7197	1.4456	1.4432	1.4407	1.4382	1.4358	1.4332	1.4307
x1 = 0.7822	1.4408	1.4384	1.436	1.4336	1.4312	1.4287	1.4263
x1 = 0.8561	1.4352	1.4329	1.4306	1.4283	1.426	1.4236	1.4212
x1 = 0.9287	1.4298	1.4276	1.4254	1.4232	1.421	1.4187	1.4164
x1 = 1	1.4245	1.4224	1.4203	1.4182	1.4161	1.4139	1.4117

Cc1cccc(C)c1 [1,3-dimethylbenzene] + C1COCCO1
refractive index
Settings	288.15 K	293.15 K	298.15 K	303.15 K	308.15 K	313.15 K	318.15 K
x2 = 0	1.4999	1.4974	1.4948	1.4922	1.4896	1.487	1.4844
x2 = 0.0938	1.4933	1.4907	1.488	1.4853	1.4826	1.4799	1.4772
x2 = 0.1532	1.489	1.4864	1.4837	1.4811	1.4783	1.4756	1.4728
x2 = 0.2046	1.4852	1.4826	1.4799	1.4772	1.4745	1.4718	1.4691
x2 = 0.2698	1.4805	1.4779	1.4753	1.4726	1.4699	1.4672	1.4645
x2 = 0.3374	1.4755	1.473	1.4704	1.4677	1.4651	1.4624	1.4597
x2 = 0.4002	1.4709	1.4684	1.4658	1.4632	1.4606	1.458	1.4553
x2 = 0.4714	1.4656	1.4631	1.4606	1.458	1.4555	1.4529	1.4503
x2 = 0.5487	1.4598	1.4574	1.4549	1.4524	1.4498	1.4473	1.4447
x2 = 0.63	1.4536	1.4512	1.4487	1.4462	1.4437	1.4412	1.4387
x2 = 0.7182	1.4468	1.4444	1.442	1.4395	1.4371	1.4346	1.4321
x2 = 0.8035	1.4401	1.4378	1.4354	1.4329	1.4305	1.428	1.4256
x2 = 0.8708	1.4348	1.4325	1.4302	1.4279	1.4255	1.4231	1.4206
x2 = 0.9324	1.4299	1.4277	1.4255	1.4232	1.4209	1.4186	1.4163
